Test results: patent US5961483A, “Iontophoretic delivery of cell adhesion inhibitors” (priority 1997, dated 1999)
In brackets after ≈: the same amount, converted by molar mass. Several values for one entry are separate records, joined by “and”; a condition that tells them apart may be missing. Identical values can stand only once. Counter-ions that a name gives are not always drawn.

Columns and labels:
[1] = In vitro excised skin iontophoretic delivery (flow-through cells); format: in vitro ADME, porcine; conditions: for delivery rate (FIG. 7): 50 mg/mL chloride salt
Procedure: Patch Designs: The 2 compartment patch design includes an absorbent drug reservoir with 2 cm^2 skin-contacting area and volume of 0.30 mL. The drug reservoir is separated from the electrode compartment with a 100 MWCO ultrafiltration membrane. The electrode compartment included a silver anode and cation exchange media in a hydrogel. A monolithic patch design was also used, consisting of a sandwich composed of a silver anode in the middle of 2 layers of absorbent material. The patches are assembled and loaded with the dosing solution just before applying to the skin.
Experimental Protocol: The iontophoretic delivery of a GPIIb/IIIa antagonist was carried out in a flow-through in vitro system. […] The patch was loaded a 10 mg/mL solution of the IIb/IIIa antagonist in 154 mM saline.
A silver chloride mesh return cathode was located upstream of the polycarbonate flow-through cells. Freshly dermatomed (1 mm) porcine skin was mounted in the cells on a porous support. The patches were dosed with aqueous solutions of the drug and then placed on top of the excised skin. The patches were secured by a spring-loaded mechanism that maintained even pressure over the patch. The cells were "perfused" by means of a peristaltic pump which pulls receiver solution through them. Effluents from the cells were collected with a fraction collector. Flow rates were typically 0.25 mL/min. The receiver solution was an isotonic pH 7.4 buffered saline solution containing 10 mM HEPES, 100 mM NaCl, PEG 400, and a surfactant, Pluronic P-103. lontophoresis current (50 μA) was provided by WPI power cells, and the applied currents and cell voltages were recorded with a Fluke databucket.
Results: The effluent receiver solution was measured in a series of six runs, to determine whether the ester was hydrolyzed during the period of the iontophoresis. Results were obtained by means of liquid scintillation counting (radioactivity), and HPLC-UV. The HPLC results are estimates based on calibration for the ester form only.
Patches: A dual compartment 2 cm^2 patch design, loaded with 100 mg/mL of the GPIIb/IIIa antagonist of Example 1, with a size exclusion or anion exchange membrane separator.
Experimental Protocol: See Example 1, with current applied at 400 μA.
Patches: A dual compartment 2 cm^2 patch design, loaded with 50 mg/mL chloride salt of the IIb/IIIa antagonist.
Experimental Protocol: See Example 1, current applied at 100 μA and 200 μA.
Patches: A dual compartment 2 cm^2 patch design, loaded with either: (1) a 1 mM NaCl, 150 mg/mL formulation of the IIb/IIIa antagonist of Example 1, or (2) a 75 mM NaCl, 100 mg/mL formulation of the drug.
Experimental Protocol: See Example 1, current applied at 100 μA for the 1 mM NaCl sample, and at 400 μA for the 75 mM NaCl sample.

[2] = Assay of extracts of the patch following completion of iontophoresis; format: in vitro ADME
[3] = In vivo swine experiments (iontophoretic delivery, plasma levels; comparison with constant IV infusion); parameters: species or system Yorkshire swine
Procedure: Patch Design: Same as in Example 1.
Experimental Protocol: In each experiment, the patches were loaded with a 20 mg/mL solution of the same IIb/IIIa antagonist used in Example 1 in 154 mM saline, immediately before application to the skin of the animals. Unanesthetized Yorkshire swine with weights of about 20 to 35 kg were used. The skin sites receiving the patches were wiped clean with moist gauze pads. Patches were overwrapped with an adhesive, elastic wrap to hold the patches in place. Separate constant current (100 μA) power supplies were provided for each iontophoresis patch system. Current and voltage readings were made and recorded by on-board dataloggers (Fluke databuckets).
Blood samples were withdrawn from the vena cava through an IV catheter into VACUTAINER™ blood collection tubes containing EDTA. After gentle mixing, the tubes were centrifuged to separate the plasma, which was transferred to clean polypropylene tubes and frozen on dry ice. Frozen samples were stored at -80° C. until assayed.
Results: FIGS. 4 and 5 provide a comparative illustration of the in vivo delivery of the GPIIb/IIIa antagonist (mentioned in Example 1) to pigs using constant IV infusion (FIG. 4) and constant iontophoresis (FIG. 5). IV infusion employed the acid form of the drug at an infusion rate of 10 μg/h.

[4] = Physicochemical properties; conditions: pH 4

Row | SMILES | constancy of flux (FIG. 3) [1] | delivery rate profile (FIG. 8) ([1]; 1 mM NaCl, 150 mg/mL at 100 μA and 75 mM NaCl, 100 mg/mL at 400 μA, 24 hour iontophoresis) | dependence of in vitro delivery on current (FIG. 3) ([1]; 10 mg/mL drug, 9 mg/mL NaCl) | variability in delivery from skin to skin (FIG. 2) ([1]; 10 mg/mL, 154 mM NaCl, 50 μA) | delivery, anion exchange compared with size exclusion membrane patch (FIG. 6) ([1]; dual compartment 2 cm^2 patch, 100 mg/mL, 400 μA) | delivery rate profile (FIG. 6) ([1]; dual compartment patches, 100 mg/mL, 400 μA) | Total (Liquid Scintillation Assay) ([1]; effluent receiver solution, 10 mg/mL in 154 mM saline, 50 μA, six runs (sample 1-6)) | metabolism of the positively charged ester to the uncharged zwitterion ([1]; in the skin or receptor fluid) | acid hydrolysis product in extracts of the patch [2] | variability in plasma levels with iontophoresis ([3]; 20 mg/mL in 154 mM saline patch) | blood levels, iontophoresis compared with constant IV infusion (FIGS. 4 and 5) ([3]; 20 mg/mL in 154 mM saline patch vs acid form IV at 10 μg/h, plasma acid drug form) | solubility [4] [mg/mL] | delivery rate (FIG. 7) ([1]; 100 μA, nearly flat delivery) [µg/h] | delivery rate (FIG. 7) ([1]; 200 μA, nearly constant delivery) [µg/h]
1 | CCCCOC(=O)N[C@@H](CNC(=O)C[C@H]1CC(c2ccc(C(=N)N)cc2)=NO1)C(=O)OC [GPIIb/IIIa antagonist, methyl-N^3-[2-{3-(4-formamidinophenyl)-isoxazolin-5(R)-yl}-acetyl]-N^2-(n-butyloxycarbonyl)-2,3-(S)-diaminopropanoate] | very constant over the 24 hour period | much more uniform delivery rates | proportional to increase in current | unexpectedly low | somewhat greater delivery | the flux starts high, and falls as electrolyte cations accumulate with time | 4.76 µg/mL and 4.15 µg/mL and 4.05 µg/mL and 4.87 µg/mL and 5.56 µg/mL and 5.19 µg/mL | metabolized, to some extent | no detectable acid hydrolysis product | extremely low | similar | 80 (≈ 179 mM) | – | –
2 | CCCCOC(=O)N[C@@H](CNC(=O)C[C@H]1CC(c2ccc(C(=N)N)cc2)=NO1)C(=O)OC [chloride salt of the IIb/IIIa antagonist] | – | – | – | – | – | – | – | – | – | – | – | – | 10 to 20 | 20 to 35
